Measurements reported in patent publication US12005056B2, “Centrally-active ghrelin agonist and medical uses thereof” (Helsinn Healthcare SA, priority 2018, dated 2024).
“Also recorded” adds a separate entry of the source. Like-named read-outs stand apart in the source and are kept apart here.

How the values were obtained:
human GHSR1a receptor = target: T1, human GHSR1a receptor (Homo sapiens, UniProt Q92847); assay: FLIPR assay in HEK293 cells stably expressing human GHSR1a receptor; type: cell-based; conditions: read-out: EC50, agonist activity in FLIPR assay
T1 construct: expressed in transfected cells; host or cells: HEK293
T1 sequence (Q92847 whole entry): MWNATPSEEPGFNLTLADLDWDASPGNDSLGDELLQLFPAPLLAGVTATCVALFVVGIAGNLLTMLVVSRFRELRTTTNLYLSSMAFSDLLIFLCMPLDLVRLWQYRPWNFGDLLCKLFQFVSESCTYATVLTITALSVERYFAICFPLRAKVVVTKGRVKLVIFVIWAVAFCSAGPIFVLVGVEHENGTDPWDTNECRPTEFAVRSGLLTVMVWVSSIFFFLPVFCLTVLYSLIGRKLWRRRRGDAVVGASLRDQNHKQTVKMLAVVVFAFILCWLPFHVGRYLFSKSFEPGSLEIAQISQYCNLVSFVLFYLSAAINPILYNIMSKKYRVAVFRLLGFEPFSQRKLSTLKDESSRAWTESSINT
Description: HEK293 cells stably expressing human GHSR1a receptor were used in FLIPR assay. Cells were maintained under standard procedures. One day prior the test, cells were seeded at a density of 1.5×10^4/well in a Matrigel® coated 384-well plate with 30 μl of complete DMEM medium, and incubated at 37° C. in 5% CO2 for 22-26 hrs. On the test day, 4× loading dye was added into each well (10 μl per well for 384 well plates). Assay plates were incubated at 37° C. in the dark for 30 minutes. Then the dye content was removed by centrifugation at 300 rpm for 30 s. 40 μL HBSS/Hepes with 1 mM probenicid was added with Platemate Matrix (low speed setting, Thermo). The plate was then placed in FLIPR Tetra (Molecular Device) and 5× working concentrations of agonists were added by FLIPR. Fluorescence signal was detected with FLIPR at room temperature according to standard settings.

human GHSR1 receptor = target: T2, human GHSR1 receptor (Homo sapiens, UniProt Q92847); assay: [125I]Ghrelin binding assay on membranes from BHK cells; conditions: 1 nM [125I]Ghrelin, BHK cell membranes
T2 construct: expressed in transfected cells; host or cells: BHK cells (membrane preparation)
T2 sequence (Q92847 whole entry): as above
Description: In additional binding study, compound A was dissolved in DMSO and diluted with water in different range of concentrations. Membrane protein prepared from BHK cells stably expressing human GHSR1 receptor were used for binding assay. The membrane was diluted in assay buffer to yield 20 μg/well in 120 μl. The binding assay was set up in 96 well plate as following: 120 μl [^125I]Ghrelin (final concentration 1 nM) and 15 μl compound A (10×) diluted in the assay buffer. The reaction mixture was incubated at room temperature for 30 minutes before terminating by quick filtration onto GF/B filtration plate pre-soaked in 0.3% PEI using cell harvester (Perkin Elmer). The filter was washed three times and dried at 37° overnight. The radioactivity bound to filter membrane was measured with MicroBeta Trilux (Perkin Elmer).

[1] = mouse, in vivo
Description: Sixty female Balb/C mice weighing 20-25 g at start of experiment were used and divided into 4 groups of 15 mice each. […] Body weights were measured daily, immediately prior to the initiation of dosing.

[2] = tested on: cisplatin-treated Wistar rats; assay: Cisplatin study (body weight, food intake, von Frey testing); type: in vivo; conditions: for Body Weight / Allodynia: Cisplatin 0.5 mg/kg (i.p.) for three days
Description: Compound A was made as a suspension in 0.5% carboxymethylcellulose solution in dosing volumes of 1 and 10 mL/kg for rats and mice respectively and dosed orally at 3, 10 or 30 mg/kg. […] Bortezomib was prepared in 10% Tween 80, 10% EtOH 100% and 80% saline solution and injected i.v. (1 mL/kg) at 0.2 mg/kg.
Fifty male Wistar rats weighing 250-300 g at start of experiment were randomly divided into 5 groups of 10 rats each. Group 1 received daily Compound A vehicle (p.o.) for 6 days and cisplatin vehicle (i.p.) for 3 days. Group 2 received Compound A vehicle (p.o) and 0.5 mg/kg cisplatin (i.p.) for 3 days followed by Compound A vehicle for 3 additional days. Group 3 received daily 3 mg/kg Compound A (p.o) and 0.5 mg/kg cisplatin (i.p.) for 3 days followed by 3 mg/kg Compound A for an additional 3 days. Group 4 received 10 mg/kg Compound A (p.o) and 0.5 mg/kg cisplatin (i.p.) for 3 days followed by 10 mg/kg Compound A for an additional 3 days. Group 5 received daily 30 mg/kg Compound A (p.o.) and 0.5 mg/kg cisplatin (i.p.) for 3 days followed by 30 mg/kg Compound A for an additional 3 days. In each case, cisplatin or cisplatin vehicle was dosed 30 min after Compound A or Compound A vehicle, which was dosed 1 hour prior to von Frey filament testing. Individual body weights and 24 h food intake were measured daily from just prior to initiation of dosing.
In the cisplatin study, rats were individually housed and acclimated to handling and to the Von Frey testing apparatus for several days prior to start of the experiment. Baseline measurements were obtained prior to dosing. Behavioral testing was conducted following procedures previously described (28). Each filament was tested 5 times and the test continued until 3 withdrawal responses to a particular filament were recorded.

[3] = tested on: oxaliplatin-treated Balb/C mice; conditions: for Body Weight / IENFD / NCS: Oxaliplatin 6 mg/kg (i.p.) twice weekly for 4 weeks
[4] = rat, in vivo
[5] = rat, in vivo; remark: listed apart in the source

3-(1-(2,3-dichloro-4-methoxyphenyl) ethyl)-1-methyl-1-(1,3,3-trimethylpiperidin-4-yl)urea monohydrochloride salt [Compound A]
EC50 (human GHSR1a receptor): 1.25 ± 0.42 nM
Ki (human GHSR1 receptor): 1.42 ± 0.35 nM
tissue penetration index (ratio of tissue/plasma) in DRG [1]: 18-19 fold
tissue penetration index (ratio of tissue/plasma) in SN [1]: 9-12 fold
Tissue penetration index (DRG/plasma ratio) ([1]; 10 mg/kg): 17.6
Tissue penetration index (SN/plasma ratio) ([1]; 10 mg/kg): 8.9
Tissue penetration index (DRG/plasma ratio) ([1]; 30 mg/kg): 18.9
Tissue penetration index (SN/plasma ratio) ([1]; 30 mg/kg): 12.0
AUC0-∞ in sciatic nerve and DRG relative to plasma ([1]; po, 30 mg/kg): 3-4 fold
terminal half-life in plasma ([1]; po, 30 mg/kg): approximately 1 h
terminal half-life in sciatic nerve ([1]; po, 30 mg/kg): approximately 4.7 h
Body Weight ([2]; Compound A dose 3): +
Allodynia ([2]; Compound A dose 10): +
Body Weight ([2]; Compound A dose 10): +
Allodynia ([2]; Compound A dose 30): +
Body Weight ([2]; Compound A dose 30): +
cisplatin-induced mechanical hyperalgesia ([2]; Compound A 3 mg/kg p.o., monohydrochloride salt, 3 mg/kg): no significant effect and not
paw withdrawal thresholds compared to vehicle-treated rats ([2]; Compound A 30 mg/kg, Days 3 thru 5): significantly increased
overall food intake compared to cisplatin alone ([2]; Compound A 3, 10 and 30 mg/kg p.o.): increased
body weight compared to cisplatin alone ([2]; Compound A 3, 10 and 30 mg/kg p.o., monohydrochloride salt): increased; also recorded: improved
food intake compared to cisplatin alone ([2]; Compound A 10 and 30 mg/kg p.o. (FIG. 1B)): improved
cisplatin-induced mechanical hyperalgesia ([2]; Compound A 10 and 30 mg/kg p.o., monohydrochloride salt): significantly reduced; also recorded: significantly improved
improvement of digital potential amplitude vs. oxaliplatin-treated mice ([3]; Compound A 30 mg/kg): 33+/−9%
digital potential amplitude ([3]; Compound A 30 mg/kg (FIG. 2B)): able to normalize
oxaliplatin-induced decrease in digital and caudal NCV ([3]; Compound A 10 and 30 mg/kg): significantly prevented
IENFD in footpads vs. vehicle treated mouse values ([3]; Compound A 10 and 30 mg/kg, monohydrochloride salt): completely normalized; also recorded: completely normalised
weight loss compared to oxaliplatin treated mice ([3]; Compound A 10 or 30 mg/kg): less weight loss
Body Weight ([3]; Compound A dose 10): +
IENFD ([3]; Compound A dose 10): +
NCS ([3]; Compound A dose 10): +
Body Weight ([3]; Compound A dose 30): +
IENFD ([3]; Compound A dose 30): +
NCS ([3]; Compound A dose 30): +
degenerative changes in DRG and sciatic nerve ([3]; mouse, in vivo): did not cause any degenerative changes
AUClast ([4]; iv, 3 mg/kg): 937 ± 145 ng·h/mL
C0083/Cmax ([4]; iv, 3 mg/kg): 682 ± 58.5 ng/mL
CL (clearance) ([4]; iv, 3 mg/kg): 52.0 ± 9.22 mL/min/kg
Vss (volume distribution at steady state) ([4]; iv, 3 mg/kg): 6.6 ± 0.491 L/kg
t1/2, z ([4]; iv, 3 mg/kg): 1.92 ± 0.121 h
AUClast ([4]; iv, 10 mg/kg): 3540 ± 765 ng·h/mL
AUClast ([4]; po, 3 mg/kg): 780 ± 155 ng·h/mL
C0083/Cmax ([4]; po, 3 mg/kg): 181 ± 43.7 ng/mL
F (bioavailability) ([4]; po, 3 mg/kg): 83 ± 21%
t1/2, z ([4]; po, 3 mg/kg): 2.56 ± 0.177 h
tmax ([4]; po, 3 mg/kg): 1.67 ± 0.577 h
AUClast ([4]; po, 10 mg/kg): 3400 ± 1010 ng·h/mL
tmax ([4]; po, 10 mg/kg): 1.67 ± 2.02 h
AUClast ([4]; po, 30 mg/kg): 12300 ± 1400 ng·h/mL
C0083/Cmax ([4]; po, 30 mg/kg): 1430 ± 208 ng/mL
F (bioavailability) ([4]; po, 30 mg/kg): 116 ± 28%
bioavailability ([4]; po, 30 mg/kg): exceeded 80%
t1/2, z ([4]; po, 30 mg/kg): 3.26 ± 0.170 h
tmax ([4]; po, 30 mg/kg): 1.67 ± 0.577 h
F [5]: 70.6%
2 hr brain concentration ([5]; iv): 172. ng · g
2 hr plasma concentration ([5]; iv): 119.3 ng/mL
AUC (0-t) ([5]; iv, 3 mg/kg): 701.5 ng·h/mL
Cmax ([5]; iv, 3 mg/kg): 468.4 ng/mL
T1/2 z ([5]; iv, 3 mg/kg): 1.6 h
Vz/F ([5]; iv, 3 mg/kg): 9.9 L/kg
AUC (0-t) ([5]; po, 3 mg/kg): 495.3 ng·h/mL
Cmax ([5]; po, 3 mg/kg): 58.6 ng/mL
T1/2 z ([5]; po, 3 mg/kg): 12.7 h
Vz/F ([5]; po, 3 mg/kg): 38.6 L/kg
tmax ([5]; po, 3 mg/kg): 3.3 h
